Data reported in the supplement of paper PMC10307832.

How the values were obtained:
Experiment in all cases: relative viability (nuclei count vs DMSO), 5 days (fraction); higher = more cells survive
[1] = compound: CC1=CN=C(N=C1C2=CNC(=C2)C(=O)N[C@H](CO)C3=CC(=CC=C3)Cl)NC4=C(C=C(C=C4)F)Cl [VX-11e] + CC(=O)c1c(C)c2cnc(Nc3ccc(N4CCNCC4)cn3)nc2n(C2CCCC2)c1=O [Palbociclib] (partner 0.5 µM)
Outline: (§1)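 Nuclei were stained with Hoechst during a one-step fixation (final 0.05% Triton X-100, 1% formaldehyde, 1 ug/ml Hoechst) carried out 5 days after dosing, then counted on 4× images. The cells, lung cancer lines in 1536-well plates, had been dosed by pin tool the day after seeding with one drug alone or a fixed anchor-drug dose plus five library-drug doses (not always all listed) in √10 steps. Relative viability is the nuclei count in treated wells divided by that in vehicle wells, and each value is the median of duplicate plates.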

[2] = compound: CC1=CN=C(N=C1C2=CNC(=C2)C(=O)N[C@H](CO)C3=CC(=CC=C3)Cl)NC4=C(C=C(C=C4)F)Cl [VX-11e] + CCNC(=O)c1noc(-c2cc(C(C)C)c(O)cc2O)c1-c1ccc(CN2CCOCC2)cc1 [Luminespib] (partner 0.01 µM)
Outline: as §1

[3] = compound: CC1=CN=C(N=C1C2=CNC(=C2)C(=O)N[C@H](CO)C3=CC(=CC=C3)Cl)NC4=C(C=C(C=C4)F)Cl [VX-11e] + COc1cccc2cc(-c3nc([C@H]4CC[C@H](C(=O)O)CC4)n4ncnc(N)c34)[nH]c12 [OSI-027] (partner 0.5 µM)
Outline: as §1

[4] = compound: CC1=CN=C(N=C1C2=CNC(=C2)C(=O)N[C@H](CO)C3=CC(=CC=C3)Cl)NC4=C(C=C(C=C4)F)Cl [VX-11e] + CS(=O)(=O)N1CCN(Cc2cc3nc(-c4cccc5[nH]ncc45)nc(N4CCOCC4)c3s2)CC1 [Pictilisib] (partner 1 µM)
Outline: as §1

Cell Line	relative viability ([1]; first compound 0.04 µM)	relative viability ([1]; first compound 0.1265 µM)	relative viability ([1]; first compound 0.4 µM)	relative viability ([1]; first compound 1.265 µM)	relative viability ([1]; first compound 4 µM)	relative viability ([2]; first compound 0.04 µM)	relative viability ([2]; first compound 0.1265 µM)	relative viability ([2]; first compound 0.4 µM)	relative viability ([2]; first compound 1.265 µM)	relative viability ([2]; first compound 4 µM)	relative viability ([3]; first compound 0.04 µM)	relative viability ([3]; first compound 0.1265 µM)	relative viability ([3]; first compound 0.4 µM)	relative viability ([3]; first compound 1.265 µM)	relative viability ([3]; first compound 4 µM)	relative viability ([4]; first compound 0.04 µM)	relative viability ([4]; first compound 0.1265 µM)	relative viability ([4]; first compound 0.4 µM)	relative viability ([4]; first compound 1.265 µM)	relative viability ([4]; first compound 4 µM)
LU99A	0.334	0.373	0.443	0.326	0.228	0.3	0.249	0.209	0.336	0.172	0.257	0.324	0.249	0.286	0.256	0.285	0.283	0.385	0.278	0.155
NCI-H1651	0.526	0.493	0.492	0.449	0.498	0.977	0.847	0.784	0.796	0.672	0.56	0.62	0.523	0.548	0.591	0.494	0.519	0.504	0.548	0.536
NCI-H460	0.198	0.195	0.146	0.0404	0.0179	0.0317	0.0379	0.0305	0.0413	0.0238	0.589	0.483	0.181	0.0819	0.0249	0.306	0.27	0.141	0.173	0.1
UMC-11		0.309	0.283	0.267	0.318	1.01	1.02	1.02	0.948	0.94	0.36	0.435	0.41	0.379	0.428	0.355	0.943	0.755	0.401	0.609
ChaGo-K-1	0.982	0.821	0.915	0.947	0.845	0.633	0.646	0.561	0.688	0.507	0.546	0.533	0.395	0.527	0.439	0.351		0.587	0.567	0.569
NCI-H1666	0.616	0.632		0.68	0.72	1.02	0.92	0.941	0.829	0.642	0.932	0.777	0.75	0.611	0.524	0.511	0.406	0.367	0.336	0.294
NCI-H23	0.453	0.416	0.425	0.382	0.203	0.237	0.225	0.237	0.182	0.185	0.368	0.411		0.271	0.173	0.35	0.437	0.176	0.31	0.19
